This note sets out measurements from PubChem BioAssay (NCI).

Among the test systems are NCI-H23 lung; UACC-257 melanoma; HL-60(TB) leukemia; OVCAR-4 ovarian; HT29 colon; MALME-3M melanoma; COLO 205 colon; SNB-75 CNS; ACHN renal; NCI-H460 lung.
What all share (assay): inhibition of tumour cell growth, NCI panel, 48 h

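Exposure lasted 48 hours, with cells grown in 96-well plates and compounds tested at five concentrations. Abbreviation: GI50, concentration required for 50% inhibition of growth. TGI denotes the concentration required for complete inhibition of growth.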

With `CC1(C)Oc2ccc3c(=O)cc(-c4ccccc4)oc3c2C1C(=O)O` (configuration not stated), the TGI with NCI-H23 lung, in the assay with UACC-257 melanoma, with HL-60(TB) leukemia, in the assay with OVCAR-4 ovarian, in the assay on HT29 colon and with MALME-3M melanoma was over 100 µM throughout. The same compound gave a TGI in the assay on COLO 205 colon of over 100 µM.

In the case of `COC(NC(=O)Nc1ccccc1C)(C(F)(F)F)C(F)(F)F`, the TGI in the assay with NCI-H23 lung, in the assay on SNB-75 CNS, with ACHN renal, in the assay with HL-60(TB) leukemia, in the assay with NCI-H460 lung and in the assay with OVCAR-4 ovarian was over 100 µM in each case. In addition, the TGI with HT29 colon and in the assay on COLO 205 colon was over 100 µM throughout.

Consider `Clc1ccc(C2=CCN3CC=C(c4ccc(Cl)cc4)C23)cc1`, for which the TGI was 26.8 µM in the assay on NCI-H23 lung; 24.2 µM in the assay on UACC-257 melanoma; 27 µM in the assay on ACHN renal; 19.7 µM in the assay with HL-60(TB) leukemia; 22.4 µM in the assay on NCI-H460 lung; 26.1 µM with OVCAR-4 ovarian. The TGI was determined as 17.8 µM in the assay with HT29 colon, 27.3 µM with MALME-3M melanoma and 6.28 µM in the assay with COLO 205 colon.

On to `O=C(O)/C=C\C(=O)Nn1c(Cc2ccc(Cl)cc2)n[nH]c1=O`, for which the TGI with NCI-H23 lung, in the assay with UACC-257 melanoma, with HL-60(TB) leukemia, with NCI-H460 lung, in the assay on OVCAR-4 ovarian and in the assay with HT29 colon was over 100 µM throughout. Besides, the TGI in the assay with MALME-3M melanoma and in the assay with COLO 205 colon was over 100 µM throughout.

`Cc1c2ccncc2c(C)c2c1[nH]c1ccc(OCCN(C)C)cc12`: the TGI in the assay on NCI-H23 lung was 1.22 µM; with SNB-75 CNS, 1.31 µM; with UACC-257 melanoma it was 2.07 µM; in the assay with NCI-H460 lung, 0.0921 µM; in the assay on OVCAR-4 ovarian, 0.368 µM; with HT29 colon, 1.24 µM. Moreover, the TGI with MALME-3M melanoma is 2.96 µM; with COLO 205 colon it was 1.3 µM.

For `CC1CCC2(OC1)OC1C(O)C3C4CCC5CC(OC6OC(CO)C(OC7OC(CO)C(O)C(OC8OCC(O)C(O)C8O)C7OC7OC(CO)C(O)C(OC8OC(CO)C(O)C(O)C8O)C7O)C(O)C6O)C(O)CC5(C)C4CCC3(C)C1C2C` (configuration not stated), the TGI came to 4.41 µM in the assay on NCI-H23 lung; 7.76 µM in the assay on SNB-75 CNS; 22.9 µM with UACC-257 melanoma; 3.08 µM in the assay with ACHN renal; 7.21 µM in the assay on HL-60(TB) leukemia; 3.35 µM in the assay on NCI-H460 lung. Besides, the TGI worked out at 4.04 µM in the assay with OVCAR-4 ovarian, 11.8 µM in the assay on HT29 colon and 3.6 µM in the assay on COLO 205 colon.

On to `CCOC1=C(c2ccccc2)N2CCCCC2O1` (configuration not stated), for which the TGI in the assay on NCI-H23 lung is over 36.4 µM; in the assay on SNB-75 CNS it was 28.7 µM; with UACC-257 melanoma, over 33.6 µM; with ACHN renal, over 100 µM; with NCI-H460 lung, 15 µM; in the assay on HT29 colon it was 16.9 µM. Also, the TGI with MALME-3M melanoma turned out to be 20.7 µM; in the assay on COLO 205 colon, 4.7 µM.

For `C#CCOC(=O)c1ccc(OC(C)=O)cc1`, the TGI in the assay on NCI-H23 lung, in the assay on SNB-75 CNS, in the assay on UACC-257 melanoma, in the assay on ACHN renal, in the assay with NCI-H460 lung and in the assay with OVCAR-4 ovarian was over 100 µM throughout. In the assay on COLO 205 colon, the TGI was over 100 µM.

For `Clc1cc(Cl)ncn1`, the TGI with NCI-H23 lung, with SNB-75 CNS, with ACHN renal, in the assay on NCI-H460 lung, with OVCAR-4 ovarian and in the assay with HT29 colon was over 100 µM in each case. For the same compound, the TGI in the assay with MALME-3M melanoma and in the assay with COLO 205 colon was over 100 µM each time.

In the case of `Cc1c([C@H](C)[C@@H]2NC[C@@H](C)C[C@H]2O)ccc2c1C[C@H]1[C@H]2CC=C2C[C@@H](O)CC[C@@]21C`, the TGI is 37.9 µM in the assay with NCI-H23 lung; 51.7 µM in the assay with SNB-75 CNS; 27.8 µM in the assay with UACC-257 melanoma; 37.6 µM with ACHN renal; 41.4 µM in the assay with NCI-H460 lung; 40 µM in the assay with OVCAR-4 ovarian. Further, the TGI with HT29 colon was found to be 42 µM; with MALME-3M melanoma, 36.5 µM; in the assay with COLO 205 colon it was 29.4 µM.

On to `CC(C)(C)OC(=O)c1ccc(NCC2=C(Br)C(=O)C=CC2=O)cc1`, for which the TGI in the assay with NCI-H23 lung was 50.6 µM; with SNB-75 CNS, over 83.3 µM; in the assay with UACC-257 melanoma, 61.3 µM; with ACHN renal it was 33.6 µM; in the assay with NCI-H460 lung, over 83.6 µM; in the assay with OVCAR-4 ovarian it was 33 µM. For the same compound, the TGI in the assay with HT29 colon amounted to 33.9 µM; in the assay on MALME-3M melanoma, 30.6 µM; in the assay with COLO 205 colon, 33.6 µM.

`CC1=CCC[C@H]2[C@](C)(CC3=CC(=O)C(SCC(C)C)=CC3=O)[C@@H](C)CC[C@]12C`: the TGI was determined as 25.5 µM in the assay with NCI-H23 lung; 23.8 µM with SNB-75 CNS; 37.8 µM with UACC-257 melanoma; 29.7 µM in the assay with ACHN renal; 31.5 µM with NCI-H460 lung; 31.8 µM in the assay with OVCAR-4 ovarian. The TGI amounted to 29.9 µM in the assay on HT29 colon and 36.6 µM in the assay with COLO 205 colon.

`O=c1[nH]c(=O)n(C2OC(CO)C(O)C2O)cc1OCCCc1ccccc1` (configuration not stated): the TGI with NCI-H23 lung, in the assay on UACC-257 melanoma, in the assay on ACHN renal, in the assay with HL-60(TB) leukemia, in the assay on NCI-H460 lung and in the assay on OVCAR-4 ovarian was over 100 µM each time. Also, the TGI with HT29 colon, in the assay on MALME-3M melanoma and in the assay with COLO 205 colon was over 100 µM each time.

With `CCN(CC)C(=O)Cn1c2c(c3ccccc31)CCCC2`, the TGI in the assay on NCI-H23 lung, in the assay on UACC-257 melanoma, with ACHN renal, in the assay on HL-60(TB) leukemia, in the assay with NCI-H460 lung and in the assay on HT29 colon was over 100 µM in each case. Also, the TGI in the assay on MALME-3M melanoma and with COLO 205 colon was over 100 µM in each case.

Regarding `O=[N+]([O-])/C(C(Cl)=C(Cl)Cl)=C(/Nc1cccc2cccnc12)n1nnc2ccccc21`, the TGI in the assay with NCI-H23 lung is 34.7 µM; in the assay with SNB-75 CNS, 67.8 µM; in the assay with UACC-257 melanoma, over 100 µM; with ACHN renal it was 49.8 µM; with NCI-H460 lung, over 100 µM; in the assay on OVCAR-4 ovarian, 45.7 µM. The TGI turned out to be 40.5 µM in the assay with HT29 colon, 19.7 µM with MALME-3M melanoma and 31.1 µM in the assay on COLO 205 colon.

In the case of `COC1=CC(=O)N(C)C(O)C1(C#N)OC1OC(CO)C(O)C(O)C1O` (configuration not stated), the TGI with NCI-H23 lung, in the assay with SNB-75 CNS, in the assay on UACC-257 melanoma, with ACHN renal, in the assay with HL-60(TB) leukemia and with NCI-H460 lung was over 100 µM throughout. In addition, the values for the TGI in the assay on OVCAR-4 ovarian, in the assay on HT29 colon and with COLO 205 colon were over 100 µM, over 10 µM and over 100 µM, respectively.

For the compound `S=C1SC(=Nc2ccccc2)C(=Nc2ccccc2)N1c1ccc2ccccc2c1`, the TGI in the assay on NCI-H23 lung, in the assay on SNB-75 CNS, in the assay with HL-60(TB) leukemia, with OVCAR-4 ovarian, with MALME-3M melanoma and with COLO 205 colon was over 100 µM in each case.

Take `Cc1ncc(COP(=O)(O)O)c(/C=C2\SC(=S)NC2=O)c1O`: the TGI in the assay on NCI-H23 lung, with SNB-75 CNS, in the assay with UACC-257 melanoma, in the assay on ACHN renal, in the assay on NCI-H460 lung and with OVCAR-4 ovarian was over 100 µM each time. The TGI in the assay on HT29 colon, in the assay with MALME-3M melanoma and in the assay with COLO 205 colon was over 100 µM each time.

As to `CCSC1=CC2(O)N(CCc3ccc(OC)c(OC)c3)C(=O)CC2(C(=O)OC)CC1=O` (configuration not stated), the TGI is 33.2 µM with NCI-H23 lung; 34.6 µM in the assay with UACC-257 melanoma; over 100 µM with ACHN renal; 73.5 µM with HL-60(TB) leukemia; over 100 µM in the assay with OVCAR-4 ovarian; 32.9 µM with HT29 colon. Besides, the TGI with COLO 205 colon was over 100 µM.

Regarding `Cc1nc(Nc2ccccc2Cl)sc1C(=O)CC(=O)C(N)=O`, the TGI in the assay on NCI-H23 lung is over 100 µM; in the assay with SNB-75 CNS, 92.2 µM; in the assay on UACC-257 melanoma it was over 100 µM; in the assay with ACHN renal, over 100 µM; in the assay with HL-60(TB) leukemia, over 100 µM; with NCI-H460 lung, over 100 µM. For the same compound, the TGI in the assay with OVCAR-4 ovarian, in the assay on HT29 colon and with COLO 205 colon was over 100 µM each time.

Take `O=C1/C(=C/c2cccc3ccccc23)CCc2ccc([N+](=O)[O-])cc21`: the TGI in the assay on NCI-H23 lung was over 100 µM; in the assay on SNB-75 CNS it was 42.1 µM; in the assay with ACHN renal, over 100 µM; in the assay with HL-60(TB) leukemia it was over 100 µM; in the assay on NCI-H460 lung, over 100 µM; in the assay on MALME-3M melanoma it was over 100 µM. The same compound showed a TGI in the assay on COLO 205 colon of over 100 µM.

In the case of `CCC(=O)OC1CCn2c1nc1c2C(=O)C(C)=C(NC(C)=O)C1=N` (configuration not stated), the TGI with NCI-H23 lung was 3.23 µM; in the assay on SNB-75 CNS, 4.45 µM; in the assay with UACC-257 melanoma it was 2.5 µM; with ACHN renal it was 3.95 µM; in the assay with NCI-H460 lung, 3 µM; in the assay on OVCAR-4 ovarian it was 2.66 µM. Also, the TGI in the assay with HT29 colon was found to be 3.36 µM; in the assay on MALME-3M melanoma it was 2.74 µM; with COLO 205 colon, 3.18 µM.

Take `COc1ccc(C(=O)/C=C/c2cc(-c3cc(OC)c(OC)c(OC)c3)n[nH]2)cc1`: the GI50 in the assay with NCI-H23 lung is 3.04 µM; in the assay with ACHN renal, 1.96 µM; in the assay with HL-60(TB) leukemia, 2.16 µM; in the assay on NCI-H460 lung it was 1.72 µM; with OVCAR-4 ovarian, 2.2 µM; with COLO 205 colon, 1.73 µM. For the same compound, the TGI was 12.2 µM in the assay with NCI-H23 lung; 3.63 µM with ACHN renal; 4.78 µM in the assay on HL-60(TB) leukemia; 3.75 µM with NCI-H460 lung; 8.32 µM in the assay with OVCAR-4 ovarian; 3.24 µM in the assay on COLO 205 colon.
